According to PubChem BioAssay AID248 (DTP/NCI, 2004):
Values joined by “and” are separate entries in the source; they are usually repeats but may differ in a detail not shown here. Equal values may be shown once. Inconclusive results and toxic doses are left out. No stated cut-off is given here; in the data, active means T/C of 150% or more; inactive means T/C below 125%.

Test system: L1210 leukemia ip in BDF1 mice, survival T/C
Assay: NCI In Vivo Anticancer Drug Screen. Data for tumor model L1210 Leukemia (intraperitoneal) in B6D2F1 (BDF1) mice
Conditions: endpoint: mean survival time, higher = longer survival
How it was run: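 Each compound was tested against a transplantable tumor grown in mice. The endpoint was survival, with treated animals benchmarked against vehicle controls as a simple ratio.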

[1] = dose: 100.0 mg/kg/injection, schedule: Q04DX003 (ip), vehicle: Klucel (hydroxypropylcellulose) (HPC)
[2] = dose: 200.0 mg/kg/injection, schedule: Q04DX003 (ip), vehicle: Klucel (hydroxypropylcellulose) (HPC)
[3] = dose: 400.0 mg/kg/injection, schedule: Q04DX003 (ip), vehicle: Klucel (hydroxypropylcellulose) (HPC)
[4] = dose: 100.0 mg/kg/injection, schedule: Q01DX009 (ip), vehicle: Klucel (hydroxypropylcellulose) (HPC)
[5] = dose: 200.0 mg/kg/injection, schedule: Q01DX009 (ip), vehicle: Klucel (hydroxypropylcellulose) (HPC)
[6] = dose: 100.0 mg/kg/injection, schedule: Q01DX001 (ip), vehicle: saline
[7] = dose: 200.0 mg/kg/injection, schedule: Q01DX001 (ip), vehicle: saline
[8] = dose: 400.0 mg/kg/injection, schedule: Q01DX001 (ip), vehicle: saline
[9] = dose: 50.0 mg/kg/injection, schedule: Q01DX009 (ip), vehicle: saline
[10] = dose: 200.0 mg/kg/injection, schedule: Q01DX009 (ip), vehicle: saline

Measured: T/C

OC(c1ccc(Cl)cc1)(c1ccc(Cl)cc1)C(F)(Cl)Cl
inactive: dose: 26.6 mg/kg/injection, schedule: Q01DX Z (ip), vehicle: methylcellulose (MC) 87 % of control | dose: 40.0 mg/kg/injection, schedule: Q01DX Z (ip), vehicle: methylcellulose (MC) 107 % of control | dose: 60.0 mg/kg/injection, schedule: Q01DX Z (ip), vehicle: methylcellulose (MC) 96 % of control

O=C(Nc1cccc2ccccc12)Oc1ccccc1Cc1ccccc1
inactive: [1] 93 % of control | [2] 93 % of control | [3] 96 % of control

Cc1noc(C)c1C=O
inactive: [1] 102 % of control | [2] 95 % of control

CCCCCCCCCCCCOP(=O)(OCC)OCC
inactive: dose: 100.0 mg/kg/injection, schedule: Q04DX002 (ip), vehicle: saline with Tween-80 88 % of control | dose: 200.0 mg/kg/injection, schedule: Q04DX002 (ip), vehicle: saline with Tween-80 88 % of control | dose: 400.0 mg/kg/injection, schedule: Q04DX002 (ip), vehicle: saline with Tween-80 88 % of control

CCC(=O)Nc1cc(C)c(C)cc1C
inactive: [4] 100 % of control | [5] 105 % of control

O=c1cc(Cc2ccc([N+](=O)[O-])cc2)[nH]c(=O)[nH]1
inactive: dose: 50.0 mg/kg/injection, schedule: Q01DX001 (ip), vehicle: saline 101 % of control | [6] 107 % of control | [7] 115 % of control | [8] 115 % of control

CC1C(C(N)=O)C(=O)OC1(C)C (centres undefined)
inactive: [6] 89 % of control | [7] 104 % of control | [8] 98 % of control

CN(C)CC(=O)Nc1cc(Cl)ccc1Oc1ccc(Cl)cc1
inactive: dose: 100.0 mg/kg/injection, schedule: Q04DX003 (ip), vehicle: saline with Tween-80 94 % of control | dose: 200.0 mg/kg/injection, schedule: Q04DX003 (ip), vehicle: saline with Tween-80 100 % of control | dose: 400.0 mg/kg/injection, schedule: Q04DX003 (ip), vehicle: saline with Tween-80 100 % of control

Cc1nc(CON)cs1
inactive: [9] 92 % of control | dose: 100.0 mg/kg/injection, schedule: Q04DX003 (ip), vehicle: saline 100 % of control | [10] 90 % of control | dose: 200.0 mg/kg/injection, schedule: Q04DX003 (ip), vehicle: saline 92 % of control

N#CC(CC(=O)c1ccc2c(c1)OCO2)c1ccc2c(c1)OCO2 (centres undefined)
inactive: [4] 101 % of control | [1] 95 % of control | [5] 101 % of control | [2] 98 % of control | dose: 400.0 mg/kg/injection, schedule: Q01DX009 (ip), vehicle: Klucel (hydroxypropylcellulose) (HPC) 97 % of control | [3] 101 % of control

C/C(=N\NC(=S)Nc1cc(Cl)ccc1Cl)c1ccc(O)cc1O
inactive: dose: 100.0 mg/kg/injection, schedule: Q01DX001 (ip), vehicle: Klucel (hydroxypropylcellulose) (HPC) 88 % of control | dose: 200.0 mg/kg/injection, schedule: Q01DX001 (ip), vehicle: Klucel (hydroxypropylcellulose) (HPC) 96 % of control | dose: 400.0 mg/kg/injection, schedule: Q01DX001 (ip), vehicle: Klucel (hydroxypropylcellulose) (HPC) 95 % of control

CC(C)=CCC(=O)NCC(CCN1CCCCC1)(c1cccc2ccccc12)C(C)C (centres undefined)
inactive: dose: 12.5 mg/kg/injection, schedule: Q04DX003 (ip), vehicle: saline with Tween-80 96 % of control | dose: 25.0 mg/kg/injection, schedule: Q04DX003 (ip), vehicle: saline with Tween-80 88 % of control | dose: 50.0 mg/kg/injection, schedule: Q01DX003 (ip), vehicle: saline with Tween-80 88 % of control | dose: 50.0 mg/kg/injection, schedule: Q04DX003 (ip), vehicle: saline with Tween-80 92 % of control | [4] 90 % of control | [5] 90 % of control

Cc1ccc(NC(=O)COc2ccc(C)cc2C)cc1
inactive: dose: 100.0 mg/kg/injection, schedule: Q04DX002 (ip), vehicle: gum acacia 95 % of control | dose: 200.0 mg/kg/injection, schedule: Q04DX002 (ip), vehicle: gum acacia 89 % of control

CCCCCCCC/C=N/Nc1nnc(N/N=C/CCCCCCCC)c2ccccc12
inactive: dose: 50.0 mg/kg/injection, schedule: Q01DX001 (ip), vehicle: carboxymethylcellulose (CMC) 108 % of control | dose: 100.0 mg/kg/injection, schedule: Q01DX001 (ip), vehicle: carboxymethylcellulose (CMC) 114 % of control | dose: 177.0 mg/kg/injection, schedule: Q01DX001 (ip), vehicle: carboxymethylcellulose (CMC) 93 % of control and 111 % of control | dose: 200.0 mg/kg/injection, schedule: Q01DX001 (ip), vehicle: carboxymethylcellulose (CMC) 114 % of control | dose: 266.0 mg/kg/injection, schedule: Q01DX001 (ip), vehicle: carboxymethylcellulose (CMC) 119 % of control | dose: 400.0 mg/kg/injection, schedule: Q01DX001 (ip), vehicle: carboxymethylcellulose (CMC) 102 % of control | dose: 600.0 mg/kg/injection, schedule: Q01DX001 (ip), vehicle: carboxymethylcellulose (CMC) 101 % of control

N#CS
inactive: [9] 102 % of control | dose: 100.0 mg/kg/injection, schedule: Q01DX009 (ip), vehicle: saline 95 % of control | [10] 98 % of control
